ChEMBL document CHEMBL3817775, “Kinetic and Structural Insights into the Mechanism of Binding of Sulfonamides to Human Carbonic Anhydrase by Computational and Experimental Studies” (J Med Chem, 2016)

Key:
[1] = molecular target: T1, Carbonic anhydrase 2 (Homo sapiens, UniProt P00918); assay: Binding affinity to GST-fused human carbonic anhydrase-2 expressed in Escherichia coli BL21 codon plus cells assessed as dissociation constant by SPR method
[2] = molecular target: T1, Carbonic anhydrase 2; assay: Binding affinity to GST-fused human carbonic anhydrase-2 expressed in Escherichia coli BL21 codon plus cells assessed as steady state dissociation constant by SPR method

SMILES | Kd [1] | Kd [2]
CCCc1ccc(S(N)(=O)=O)cc1 | 57.8 µM | 60.6 µM
CCc1ccc(S(N)(=O)=O)cc1 | 98.3 µM | 125 µM
